Legend:
[1] = system: IP10 level in PBMCs stimulated with CpG Type A; assay: PBMC IP-10 Assay; type: cell-based; settings: CpG Type A 2.5 μM
Experimental: PBMCs were isolated from whole blood as follows: Blood was collected in a sterile environment in heparinized tubes. Blood was diluted with an equal volume PBS/2% FCS and 30 ml of this mixture was added to ACCUSPIN tubes containing 15 ml Histopaque-1077 already centrifuged at 800 g for 30 seconds and warmed up at room temperature. The tubes were then centrifuged at 800 g for 20 minutes at room temperature with no brake. The mononuclear band, just above the polyethylene frit, was removed by Pasteur pipet. These mononuclear cells were washed three times with sterile PBS, counted, and resuspended in RPMI 1640 supplemented with 10% heat inactivated fetal calf serum, 10 mM HEPES, 1 mM sodium pyruvate, penicillin (50 U/ml), streptomycin (50 μg/ml) and glutamine (2 mM) to approximately 1.5×10^6/ml. Approximately 2×10^5 cells/well were plated in 96 well tissue culture plates (BD Falcon 353072), and preincubated 60 mi/37° C. with a titration of compounds, in a final concentration of 1% DMSO. Cells were then stimulated with CpG Type A (Invivogen, Cat #tlrl-2216; ODN 2216) at a final concentration of 2.5 μM. Cells were incubated overnight, and supernatants were removed. PBMC viability of cells remaining in the well was measured with ATPlite luminescence assay (Perkin-Elmer) per the manufacturer's instructions. Luminescence was measured on the Perkin-Elmer Envision, using the luminescence filter. IP10 level was measured with CXCL10/IP10 AlphaLISA kit (Perkin-Elmer) per the manufacturer's instructions, except halving all volumes. Fluorescence was measured on the Envision Multilabel plate reader, using the AlphaScreen standard settings.

β5i = target: T1, β5i (Homo sapiens, UniProt P20618+P28062); assay: Cell-Based Proteasome Activity/Selectivity Assay (Ramos cells), substrate (ANW)2Rh110; settings: highest concentration tested 20 μM, read-out: Ic50 ramos:ac-(anw)2-r110
T1 construct: protease activity associated with the proteasome complex in cultured cells; endogenous in cells; host or cells: Ramos cells
Text: (§1) Cell-Based Proteasome Activity/Selectivity Assay
(§2) The Cell-Based Proteasome subunit activity/selectivity assay was a panel of 5 fluorogenic assays that independently measured the activity of β5c or β5i (chymotrypsin-like activity), β2c/2i (trypsin-like), and β1c or β1i (caspase-like) protease activity associated with the proteasome complex in cultured cells. Specifically, the following substrates were used for respective subunit activities: β1i: (PAL)2Rh110, β1c: (LLE)2 Rh110, β2c/2i: (KQL)2Rh110, β5c: (WLA)2Rh110, β5i: (ANW)2Rh110. The following procedure was followed:
(§3) Cell preparation: Plated 25 μl of Ramos cells (2×10^6/ml in DPBS) into half area plate (PerkinElmer Cat 6005569) to final 5×10^4 cells/well. Added 0.5 μl of 100×4-fold serial diluted test compounds or DMSO to each well. Highest concentration of compound tested was 20 μM, thus compound serial dilution started from […]. Incubated for 30 minutes at 37° C. Then equilibrated at room temperature for 15 minutes. Added 25 μl of 2× reaction mix consisting of 0.025% digitonin, 20 μM of each substrates and 0.5M sucrose in DPBS. Shaked for one minute @ 700 rpm. Incubated for 120 min at room temperature. Then read the plates with an Envision multilabel plate reader (PerkinElmer) with 500 nm excitation/519 nm emission.

β1c = target: T2, β1c (Homo sapiens, UniProt P28072+Q99436); assay: Cell-Based Proteasome Activity/Selectivity Assay (Ramos cells), substrate (LLE)2 Rh110; settings: highest concentration tested 20 μM
T2 construct: protease activity associated with the proteasome complex in cultured cells; endogenous in cells; host or cells: Ramos cells
Text: as §1, §2, §3

β1i = target: T3, β1i (Homo sapiens, UniProt P28065+P40306); assay: Cell-Based Proteasome Activity/Selectivity Assay (Ramos cells), substrate (PAL)2Rh110; settings: highest concentration tested 20 μM
T3 construct: protease activity associated with the proteasome complex in cultured cells; endogenous in cells; host or cells: Ramos cells
Text: as §1, §2, §3

β2c/2i = assay: Cell-Based Proteasome Activity/Selectivity Assay (Ramos cells), substrate (KQL)2Rh110; settings: highest concentration tested 20 μM
Text: as §1, §2, §3

β5c = target: T4, β5c (Homo sapiens, UniProt P20618+P28074); assay: Cell-Based Proteasome Activity/Selectivity Assay (Ramos cells), substrate (WLA)2Rh110; settings: highest concentration tested 20 μM
T4 construct: protease activity associated with the proteasome complex in cultured cells; endogenous in cells; host or cells: Ramos cells
Text: as §1, §2, §3

C[C@H](NC(=O)c1ccnn1C)C(=O)N[C@@H](Cc1c[nH]c2ccccc12)C(=O)N[C@@H](Cc1ccccc1)C(=O)C(=O)NCc1ccccc1 [Example 30, 2-Methyl-2H-pyrazole-3-carboxylic acid {(S)-1-[(S)-1-((S)-1-benzyl-2-benzylcarbamoyl-2-oxo-ethylcarbamoyl)-2-(1H-indol-3-yl)-ethylcarbamoyl]-ethyl}-amide]
EC50 [1]: 4090 nM
IC50 (β5i): 47 nM
IC50 (β1c): 12500 nM
IC50 (β1i): 569 nM
IC50 (β2c/2i): 10000 nM
IC50 (β5c): 2480 nM

CNC(=O)C(=O)[C@H](Cc1ccccc1)NC(=O)[C@H](Cc1c[nH]c2ccccc12)NC(=O)[C@H](C)NC(=O)OCc1ccccc1 [Example 31, {(S)-1-[(S)-1-((S)-1-Benzyl-2-methylcarbamoyl-2-oxo-ethylcarbamoyl)-2-(1H-indol-3-yl)-ethylcarbamoyl]-ethyl}-carbamic acid benzyl ester]
EC50 [1]: 1180 nM
IC50 (β5i): 34 nM
IC50 (β1c): 13100 nM
IC50 (β1i): 244 nM
IC50 (β2c/2i): > 20000 nM
IC50 (β5c): 738 nM

C[C@H](NC(=O)OCc1ccccc1)C(=O)N[C@@H](Cc1c[nH]c2ccccc12)C(=O)N[C@@H](Cc1ccccc1)C(=O)C(=O)NC1CC1 [Example 32, {(S)-1-[(S)-1-((S)-1-Benzyl-2-cyclopropylcarbamoyl-2-oxo-ethylcarbamoyl)-2-(1H-indol-3-yl)-ethylcarbamoyl]-ethyl}-carbamic acid benzyl ester]
EC50 [1]: 940 nM
IC50 (β5i): 11 nM
IC50 (β1c): 12200 nM
IC50 (β1i): 266 nM
IC50 (β2c/2i): > 20000 nM
IC50 (β5c): 365 nM

COCCNC(=O)C(=O)[C@H](Cc1ccccc1)NC(=O)[C@H](Cc1c[nH]c2ccccc12)NC(=O)[C@H](C)NC(=O)OCc1ccccc1 [Example 33, {(S)-1-[(S)-1-[(S)-1-Benzyl-2-(2-methoxy-ethylcarbamoyl)-2-oxo-ethylcarbamoyl]-2-(1H-indol-3-yl)-ethylcarbamoyl]-ethyl}-carbamic acid benzyl ester]
EC50 [1]: 1380 nM
IC50 (β5i): 14 nM
IC50 (β1c): 17500 nM
IC50 (β1i): 205 nM
IC50 (β2c/2i): > 20000 nM
IC50 (β5c): 597 nM

C[C@H](NC(=O)OCc1ccccc1)C(=O)N[C@@H](Cc1c[nH]c2ccccc12)C(=O)N[C@@H](Cc1ccccc1)C(=O)C(=O)NCc1ccccn1 [Example 34, {(S)-1-[(S)-1-{(S)-1-Benzyl-2-oxo-2-[(pyridin-2-ylmethyl)-carbamoyl]-ethylcarbamoyl}-2-(1H-indol-3-yl)-ethylcarbamoyl]-ethyl}-carbamic acid benzyl ester]
EC50 [1]: 1160 nM
IC50 (β5i): 10 nM
IC50 (β1c): 13500 nM
IC50 (β1i): 589 nM
IC50 (β2c/2i): > 20000 nM
IC50 (β5c): 1090 nM

COc1ccc(C[C@H](NC(=O)[C@H](C)NC(=O)CN2CCOc3ccccc32)C(=O)N[C@@H](Cc2ccccc2)C(=O)C(=O)NCc2ccccc2)cc1 [Example 35, (S)—N-Benzyl-3-[(S)-2-[(S)-2-(2-2,3-dihydro-benzo[1,4]oxazin-4-yl-acetylamino)-propionylamino]-3-(4-methoxy-phenyl)-propionylamino]-2-oxo-4-phenyl-butyramide]
EC50 [1]: 615 nM
IC50 (β5i): 4 nM
IC50 (β1c): 13400 nM
IC50 (β1i): 395 nM
IC50 (β2c/2i): > 20000 nM
IC50 (β5c): 261 nM

CC(C)C[C@H](NC(=O)[C@H](C)NC(=O)OCc1ccccc1)C(=O)N[C@@H](Cc1ccccc1)C(=O)C(=O)NCc1ccccc1 [Example 36, {(S)-1-[(S)-1-((S)-1-Benzyl-2-benzylcarbamoyl-2-oxo-ethylcarbamoyl)-3-methyl-butylcarbamoyl]-ethyl}-carbamic acid benzyl ester]
EC50 [1]: 2800 nM
IC50 (β5i): 62 nM
IC50 (β1c): > 20000 nM
IC50 (β1i): 359 nM
IC50 (β2c/2i): > 20000 nM
IC50 (β5c): 973 nM

CC(C)C[C@H](NC(=O)[C@H](C)NC(=O)c1ccnn1C)C(=O)N[C@@H](Cc1ccccc1)C(=O)C(=O)NCc1ccccc1 [Example 37, 2-Methyl-2H-pyrazole-3-carboxylic acid {(S)-1-[(S)-1-((S)-1-benzyl-2-benzylcarbamoyl-2-oxo-ethylcarbamoyl)-3-methyl-butylcarbamoyl]-ethyl}-amide]
EC50 [1]: 5100 nM
IC50 (β5i): 234 nM
IC50 (β1c): > 20000 nM
IC50 (β1i): 1080 nM
IC50 (β2c/2i): > 20000 nM
IC50 (β5c): 4440 nM

C[C@H](NC(=O)OCc1ccccc1)C(=O)N[C@@H](Cc1c[nH]c2ccccc12)C(=O)N[C@@H](Cc1ccccc1)C(=O)C(=O)N(C)Cc1ccccc1 [Example 38, {(S)-1-[(S)-1-[(S)-1-Benzyl-2-(benzyl-methyl-carbamoyl)-2-oxo-ethylcarbamoyl]-2-(1H-indol-3-yl)-ethylcarbamoyl]-ethyl}-carbamic acid benzyl ester]
EC50 [1]: 10100 nM
IC50 (β5i): 1210 nM
IC50 (β1c): > 20000 nM
IC50 (β1i): > 20000 nM
IC50 (β2c/2i): > 20000 nM
IC50 (β5c): 4110 nM

COc1ccc(C[C@H](NC(=O)[C@H](C)NS(=O)(=O)c2ccccc2)C(=O)N[C@@H](Cc2ccccc2)C(=O)C(=O)NCc2ccccc2)cc1 [Example 39, (S)-3-[(S)-2-((S)-2-Benzenesulfonylamino-propionylamino)-3-(4-methoxy-phenyl)-propionylamino]-N-benzyl-2-oxo-4-phenyl-butyramide]
EC50 [1]: 2320 nM
IC50 (β5i): 29 nM
IC50 (β1c): > 20000 nM
IC50 (β1i): 605 nM
IC50 (β2c/2i): > 20000 nM
IC50 (β5c): 1380 nM

COc1ccc(C[C@H](NC(=O)[C@H](C)NS(=O)(=O)c2ccccc2C)C(=O)N[C@@H](Cc2ccccc2)C(=O)C(=O)NCc2ccccc2)cc1 [Example 40, (S)—N-Benzyl-3-{(S)-3-(4-methoxy-phenyl)-2-[(S)-2-(toluene-2-sulfonylamino)-propionylamino]-propionylamino}-2-oxo-4-phenyl-butyramide]
EC50 [1]: 1830 nM
IC50 (β5i): 46 nM
IC50 (β1c): 14700 nM
IC50 (β1i): 1140 nM
IC50 (β2c/2i): > 20000 nM
IC50 (β5c): 1290 nM

COc1ccc(C[C@H](NC(=O)[C@H](C)NC(=O)CCc2ccnn2C)C(=O)N[C@@H](Cc2ccccc2)C(=O)C(=O)NCc2ccccc2)cc1 [Example 41, (S)—N-Benzyl-3-((S)-3-(4-methoxy-phenyl)-2-{(S)-2-[3-(2-methyl-2H-pyrazol-3-yl)-propionylamino-]propionylamino}-propionylamino)-2-oxo-4-phenyl-butyramide]
EC50 [1]: 1500 nM
IC50 (β5i): 26 nM
IC50 (β1c): 18400 nM
IC50 (β1i): 697 nM
IC50 (β2c/2i): > 20000 nM
IC50 (β5c): 385 nM

C[C@H](NC(=O)C1Cc2ccccc2C1)C(=O)N[C@@H](CCc1ccccc1)C(=O)N[C@@H](Cc1ccccc1)C(=O)C(=O)NCc1ccccc1 [Example 42, Indan-2-carboxylic acid {(S)-1-[(S)-1-((S)-1-benzyl-2-benzylcarbamoyl-2-oxo-ethylcarbamoyl)-3-phenyl-propylcarbamoyl]-ethyl}-amide]
EC50 [1]: 379 nM
IC50 (β5i): 4 nM
IC50 (β1c): 18100 nM
IC50 (β1i): 968 nM
IC50 (β2c/2i): > 20000 nM
IC50 (β5c): 14 nM

C[C@H](NC(=O)C1Cc2ccccc2C1)C(=O)N[C@@H](Cc1ccccc1)C(=O)N[C@@H](Cc1ccccc1)C(=O)C(=O)NCc1ccccc1 [Example 43, Indan-2-carboxylic acid {(S)-1-[(S)-1-((S)-1-benzyl-2-benzylcarbamoyl-2-oxo-ethylcarbamoyl)-2-phenyl-ethylcarbamoyl]-ethyl}-amide]
EC50 [1]: 784 nM
IC50 (β5i): 3 nM
IC50 (β1c): 18300 nM
IC50 (β1i): 257 nM
IC50 (β2c/2i): > 20000 nM
IC50 (β5c): 192 nM
